According to US12077503B2, “Substituted cyclic amides and their use as herbicides” (FMC CORPORATION, priority 2015, dated 2024):

What was measured:
Type in all cases: in vivo
[1] = test system: corn (Zea mays); assay: Test G Post-Emergence Protocol; details: Zea mays, post-emergence, 312 h, read-out: Corn damage rating; for plant injury at 15.625 g/ha: 15.625 g ai/ha, evaluated after 13 days (100=total damage to plant; 0=no damage to plant); for plant injury at 62.5 g/ha: 62.5 g ai/ha; for plant injury at 62.5 g/ha / plant injury at 250 g/ha: evaluated after 13 days, 100=total damage to plant, 0=no damage to plant; for plant injury at 250 g/ha: 250 g ai/ha
Method in brief: (§1)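 Values are percent visual injury at 13 days after treatment (0 none, 100 total). Treatment was a post-emergence spray at 15.625, 62.5 or 250 g/ha on 8-day-old pot plants kept at 24/16 °C.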

[2] = test system: redroot pigweed (Amaranthus retroflexus); assay: Test G Post-Emergence Protocol; details: Amaranthus retroflexus, post-emergence, 312 h, read-out: Pigweed, Redroot damage rating; for pest or weed control at 15.625 g/ha: 15.625 g ai/ha, evaluated after 13 days (100=total damage to plant; 0=no damage to plant); for pest or weed control at 62.5 g/ha: 62.5 g ai/ha; for pest or weed control at 62.5 g/ha / pest or weed control at 250 g/ha: evaluated after 13 days, 100=total damage to plant, 0=no damage to plant; for pest or weed control at 250 g/ha: 250 g ai/ha
Method in brief: as §1

[3] = test system: giant foxtail (Setaria faberi); assay: Test G Post-Emergence Protocol; details: Setaria faberi, post-emergence, 312 h, read-out: Foxtail, Giant damage rating; for pest or weed control at 15.625 g/ha: 15.625 g ai/ha, evaluated after 13 days (100=total damage to plant; 0=no damage to plant); for pest or weed control at 62.5 g/ha: 62.5 g ai/ha; for pest or weed control at 62.5 g/ha / pest or weed control at 250 g/ha: evaluated after 13 days, 100=total damage to plant, 0=no damage to plant; for pest or weed control at 250 g/ha: 250 g ai/ha
Method in brief: as §1

[4] = test system: barnyardgrass (Echinochloa crus-galli); assay: Test G Post-Emergence Protocol; details: Echinochloa crus-galli, post-emergence, 312 h, read-out: Barnyardgrass damage rating; for pest or weed control at 15.625 g/ha: 15.625 g ai/ha, evaluated after 13 days (100=total damage to plant; 0=no damage to plant); for pest or weed control at 62.5 g/ha: 62.5 g ai/ha; for pest or weed control at 62.5 g/ha / pest or weed control at 250 g/ha: evaluated after 13 days, 100=total damage to plant, 0=no damage to plant; for pest or weed control at 250 g/ha: 250 g ai/ha
Method in brief: as §1

[5] = test system: velvetleaf (Abutilon theophrasti); assay: Test G Post-Emergence Protocol; details: Abutilon theophrasti, post-emergence, 312 h, read-out: Velvetleaf damage rating; for pest or weed control at 15.625 g/ha: 15.625 g ai/ha, evaluated after 13 days (100=total damage to plant; 0=no damage to plant); for pest or weed control at 62.5 g/ha: 62.5 g ai/ha; for pest or weed control at 62.5 g/ha / pest or weed control at 250 g/ha: evaluated after 13 days, 100=total damage to plant, 0=no damage to plant; for pest or weed control at 250 g/ha: 250 g ai/ha
Method in brief: as §1

[6] = test system: ivy-leaved morning glory (Ipomoea hederacea); assay: Test G Post-Emergence Protocol; details: Ipomoea, post-emergence, 312 h, read-out: Morningglory, Ivy-leaved damage rating; for pest or weed control at 15.625 g/ha: 15.625 g ai/ha, evaluated after 13 days (100=total damage to plant; 0=no damage to plant); for pest or weed control at 62.5 g/ha: 62.5 g ai/ha; for pest or weed control at 62.5 g/ha / pest or weed control at 250 g/ha: evaluated after 13 days, 100=total damage to plant, 0=no damage to plant; for pest or weed control at 250 g/ha: 250 g ai/ha
Method in brief: as §1

[7] = test system: corn (Zea mays); assay: Test G Pre-Emergence Protocol; details: Zea mays, pre-emergence, 312 h, evaluated after 13 days; for plant injury at 15.625 g/ha: 15.625 g ai/ha; for plant injury at 15.625 g/ha / plant injury at 250 g/ha: read-out: Corn damage rating (100=total damage to plant; 0=no damage to plant); for plant injury at 62.5 g/ha: 62.5 g ai/ha, 100=total damage to plant, 0=no damage to plant, read-out: Corn damage rating; for plant injury at 250 g/ha: 250 g ai/ha
Method in brief: (§2)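 Scores are visual damage ratings from 0 (no damage) to 100 (total plant kill), taken 13 days after treatment. Compound was sprayed one day post-sowing at 15.625, 62.5 or 250 g/ha in 50:50 acetone/water with 0.5% Tween 20.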

[8] = test system: redroot pigweed (Amaranthus retroflexus); assay: Test G Pre-Emergence Protocol; details: Amaranthus retroflexus, pre-emergence, 312 h, evaluated after 13 days; for pest or weed control at 15.625 g/ha: 15.625 g ai/ha; for pest or weed control at 15.625 g/ha / pest or weed control at 250 g/ha: read-out: Pigweed, Redroot damage rating (100=total damage to plant; 0=no damage to plant); for pest or weed control at 62.5 g/ha: 62.5 g ai/ha, 100=total damage to plant, 0=no damage to plant, read-out: Pigweed, Redroot damage rating; for pest or weed control at 250 g/ha: 250 g ai/ha
Method in brief: as §2

[9] = test system: giant foxtail (Setaria faberi); assay: Test G Pre-Emergence Protocol; details: Setaria faberi, pre-emergence, 312 h, evaluated after 13 days; for pest or weed control at 15.625 g/ha: 15.625 g ai/ha; for pest or weed control at 15.625 g/ha / pest or weed control at 250 g/ha: read-out: Foxtail, Giant damage rating (100=total damage to plant; 0=no damage to plant); for pest or weed control at 62.5 g/ha: 62.5 g ai/ha, 100=total damage to plant, 0=no damage to plant, read-out: Foxtail, Giant damage rating; for pest or weed control at 250 g/ha: 250 g ai/ha
Method in brief: as §2

[10] = test system: barnyardgrass (Echinochloa crus-galli); assay: Test G Pre-Emergence Protocol; details: Echinochloa crus-galli, pre-emergence, 312 h, evaluated after 13 days; for pest or weed control at 15.625 g/ha: 15.625 g ai/ha; for pest or weed control at 15.625 g/ha / pest or weed control at 250 g/ha: read-out: Barnyardgrass damage rating (100=total damage to plant; 0=no damage to plant); for pest or weed control at 62.5 g/ha: 62.5 g ai/ha, 100=total damage to plant, 0=no damage to plant, read-out: Barnyardgrass damage rating; for pest or weed control at 250 g/ha: 250 g ai/ha
Method in brief: as §2

[11] = test system: velvetleaf (Abutilon theophrasti); assay: Test G Pre-Emergence Protocol; details: Abutilon theophrasti, pre-emergence, 312 h, evaluated after 13 days; for pest or weed control at 15.625 g/ha: 15.625 g ai/ha; for pest or weed control at 15.625 g/ha / pest or weed control at 250 g/ha: read-out: Velvetleaf damage rating (100=total damage to plant; 0=no damage to plant); for pest or weed control at 62.5 g/ha: 62.5 g ai/ha, 100=total damage to plant, 0=no damage to plant, read-out: Velvetleaf damage rating; for pest or weed control at 250 g/ha: 250 g ai/ha
Method in brief: as §2

[12] = test system: ivy-leaved morning glory (Ipomoea hederacea); assay: Test G Pre-Emergence Protocol; details: Ipomoea, pre-emergence, 312 h, evaluated after 13 days; for pest or weed control at 15.625 g/ha: 15.625 g ai/ha; for pest or weed control at 15.625 g/ha / pest or weed control at 250 g/ha: read-out: Morningglory, Ivy-leaved damage rating (100=total damage to plant; 0=no damage to plant); for pest or weed control at 62.5 g/ha: 62.5 g ai/ha, 100=total damage to plant, 0=no damage to plant, read-out: Morningglory, Ivy-leaved damage rating; for pest or weed control at 250 g/ha: 250 g ai/ha
Method in brief: as §2

CCOc1ccc([C@@H]2CN(C)C(=O)[C@H]2C(=O)Nc2cccc(F)c2C)cc1Cl (racemic) [Compound 1803]
20%: pest or weed control at 250 g/ha [2] | pest or weed control at 15.625 g/ha [3] | pest or weed control at 15.625 g/ha [10] | pest or weed control at 250 g/ha [11]
80%: pest or weed control at 250 g/ha [3]
0%: plant injury at 15.625 g/ha [1] | plant injury at 62.5 g/ha [1] | plant injury at 250 g/ha [1] | pest or weed control at 15.625 g/ha [2] | pest or weed control at 62.5 g/ha [2] | pest or weed control at 15.625 g/ha [4] | pest or weed control at 62.5 g/ha [4] | pest or weed control at 15.625 g/ha [5] | pest or weed control at 62.5 g/ha [5] | pest or weed control at 250 g/ha [5] | pest or weed control at 15.625 g/ha [6] | plant injury at 15.625 g/ha [7] | plant injury at 62.5 g/ha [7] | pest or weed control at 62.5 g/ha [8] | pest or weed control at 62.5 g/ha [11] | pest or weed control at 15.625 g/ha [12] | pest or weed control at 62.5 g/ha [12] | pest or weed control at 250 g/ha [12]
40%: pest or weed control at 250 g/ha [8]
10%: pest or weed control at 62.5 g/ha [6] | pest or weed control at 250 g/ha [6] | pest or weed control at 15.625 g/ha [11]
70%: pest or weed control at 62.5 g/ha [3] | pest or weed control at 250 g/ha [4] | pest or weed control at 15.625 g/ha [9] | pest or weed control at 62.5 g/ha [10]
30%: plant injury at 250 g/ha [7] | pest or weed control at 15.625 g/ha [8]
90%: pest or weed control at 62.5 g/ha [9] | pest or weed control at 250 g/ha [9] | pest or weed control at 250 g/ha [10]

CN1C[C@H](c2ccc(C(F)(F)F)cc2)[C@@H](C(=O)Nc2ccc[n+]([O-])c2F)C1=O (racemic) [Compound 1815]
0%: plant injury at 15.625 g/ha [1] | plant injury at 62.5 g/ha [1] | plant injury at 250 g/ha [1] | pest or weed control at 15.625 g/ha [2] | pest or weed control at 62.5 g/ha [2] | pest or weed control at 250 g/ha [2] | pest or weed control at 15.625 g/ha [3] | pest or weed control at 62.5 g/ha [3] | pest or weed control at 15.625 g/ha [4] | pest or weed control at 62.5 g/ha [4] | pest or weed control at 250 g/ha [4] | pest or weed control at 15.625 g/ha [5] | pest or weed control at 62.5 g/ha [5] | pest or weed control at 250 g/ha [5] | pest or weed control at 15.625 g/ha [6] | pest or weed control at 62.5 g/ha [6] | pest or weed control at 250 g/ha [6] | plant injury at 15.625 g/ha [7] | plant injury at 62.5 g/ha [7] | plant injury at 250 g/ha [7] | pest or weed control at 15.625 g/ha [8] | pest or weed control at 62.5 g/ha [8] | pest or weed control at 250 g/ha [8] | pest or weed control at 15.625 g/ha [9] | pest or weed control at 62.5 g/ha [9] | pest or weed control at 15.625 g/ha [10] | pest or weed control at 62.5 g/ha [10] | pest or weed control at 250 g/ha [10] | pest or weed control at 15.625 g/ha [11] | pest or weed control at 62.5 g/ha [11] | pest or weed control at 250 g/ha [11] | pest or weed control at 15.625 g/ha [12] | pest or weed control at 62.5 g/ha [12] | pest or weed control at 250 g/ha [12]
10%: pest or weed control at 250 g/ha [3]
40%: pest or weed control at 250 g/ha [9]

Cc1c(F)cccc1NC(=O)[C@@H]1C(=O)N(C)C[C@H]1c1cccc(C(C)(C)O)c1 (racemic) [Compound 1819]
80%: pest or weed control at 250 g/ha [3] | pest or weed control at 250 g/ha [4] | pest or weed control at 62.5 g/ha [9]
50%: pest or weed control at 250 g/ha [6]
0%: plant injury at 15.625 g/ha [1] | plant injury at 62.5 g/ha [1] | pest or weed control at 15.625 g/ha [2] | pest or weed control at 62.5 g/ha [2] | pest or weed control at 15.625 g/ha [3] | pest or weed control at 15.625 g/ha [4] | pest or weed control at 15.625 g/ha [5] | pest or weed control at 62.5 g/ha [5] | pest or weed control at 250 g/ha [5] | pest or weed control at 15.625 g/ha [6] | pest or weed control at 62.5 g/ha [6] | plant injury at 15.625 g/ha [7] | plant injury at 62.5 g/ha [7] | pest or weed control at 15.625 g/ha [8] | pest or weed control at 62.5 g/ha [8] | pest or weed control at 15.625 g/ha [10] | pest or weed control at 15.625 g/ha [11] | pest or weed control at 62.5 g/ha [11] | pest or weed control at 15.625 g/ha [12] | pest or weed control at 62.5 g/ha [12] | pest or weed control at 250 g/ha [12]
90%: pest or weed control at 250 g/ha [9] | pest or weed control at 250 g/ha [10]
20%: plant injury at 250 g/ha [1] | pest or weed control at 62.5 g/ha [4] | pest or weed control at 250 g/ha [8] | pest or weed control at 15.625 g/ha [9]
40%: pest or weed control at 62.5 g/ha [3]
60%: plant injury at 250 g/ha [7] | pest or weed control at 62.5 g/ha [10]
10%: pest or weed control at 250 g/ha [2] | pest or weed control at 250 g/ha [11]
